Data reported in publication PMC6502695 (Natural product research, 2018).

What was measured:
Type in all cases: in vitro ADME
human SULT 1A2 = human SULT 1A2 (Homo sapiens, UniProt P50226); experiment: Sulfating activity of purified human SULT1A2; conditions: substrate 10 μM, mean ± SD, three experiments
human SULT 1A3 = human SULT 1A3 (Homo sapiens, UniProt P0DMM9); experiment: Sulfating activity of purified human SULT1A3
human SULT 1A1 = human SULT 1A1 (Homo sapiens, UniProt P50225); experiment: Sulfating activity of purified human SULT1A1; conditions: substrate 10 μM, mean ± SD, three experiments
[1] = Sulfating activity of human small intestine cytosol; conditions: mean ± SD, three experiments
[2] = Sulfating activity of human liver cytosol; conditions: mean ± SD, three experiments
human SULT 1C4 = human SULT 1C4 (Homo sapiens, UniProt O75897); experiment: Sulfating activity of purified human SULT1C4; conditions: substrate 10 μM, mean ± SD, three experiments
[3] = SULT 1A3, substrate 10 μM, mean ± SD, three experiments

Chain of human SULT 1A3 (P0DMM9 whole entry): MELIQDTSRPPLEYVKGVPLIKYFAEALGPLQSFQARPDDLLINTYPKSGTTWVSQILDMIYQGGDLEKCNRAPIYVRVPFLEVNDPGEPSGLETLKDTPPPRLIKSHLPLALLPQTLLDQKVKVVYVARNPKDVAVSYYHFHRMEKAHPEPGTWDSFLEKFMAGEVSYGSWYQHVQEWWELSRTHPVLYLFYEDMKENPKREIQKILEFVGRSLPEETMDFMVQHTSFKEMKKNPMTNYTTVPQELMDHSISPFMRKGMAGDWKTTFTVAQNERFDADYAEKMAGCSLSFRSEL
Chain of human SULT 1C4 (O75897 whole entry): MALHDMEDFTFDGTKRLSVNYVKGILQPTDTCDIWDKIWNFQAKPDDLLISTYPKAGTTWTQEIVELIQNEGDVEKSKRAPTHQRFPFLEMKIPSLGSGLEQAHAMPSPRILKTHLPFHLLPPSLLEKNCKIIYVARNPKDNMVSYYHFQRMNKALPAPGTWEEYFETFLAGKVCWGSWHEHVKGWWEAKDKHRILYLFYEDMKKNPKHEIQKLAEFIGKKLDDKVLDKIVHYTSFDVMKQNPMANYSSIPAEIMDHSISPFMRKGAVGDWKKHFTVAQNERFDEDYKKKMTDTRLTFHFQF
Chain of human SULT 1A2 (P50226 whole entry): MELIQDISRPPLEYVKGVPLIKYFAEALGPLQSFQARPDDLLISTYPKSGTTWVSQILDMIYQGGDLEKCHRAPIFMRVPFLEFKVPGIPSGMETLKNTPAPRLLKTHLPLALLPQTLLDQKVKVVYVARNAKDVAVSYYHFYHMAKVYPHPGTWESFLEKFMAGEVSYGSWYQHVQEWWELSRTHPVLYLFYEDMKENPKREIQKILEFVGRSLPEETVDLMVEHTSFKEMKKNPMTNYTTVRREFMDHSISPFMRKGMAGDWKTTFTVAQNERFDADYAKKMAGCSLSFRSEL
Chain of human SULT 1A1 (P50225 whole entry): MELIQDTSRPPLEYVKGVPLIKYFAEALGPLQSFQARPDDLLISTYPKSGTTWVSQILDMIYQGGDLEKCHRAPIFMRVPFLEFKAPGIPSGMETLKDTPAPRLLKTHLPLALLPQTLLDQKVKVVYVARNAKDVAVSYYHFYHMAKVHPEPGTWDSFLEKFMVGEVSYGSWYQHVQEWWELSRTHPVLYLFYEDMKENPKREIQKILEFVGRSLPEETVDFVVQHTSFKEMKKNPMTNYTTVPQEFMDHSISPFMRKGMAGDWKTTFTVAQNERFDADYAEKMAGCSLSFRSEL

Specific Activity (nmol substrate sulfated/min/mg purified enzyme) (human SULT 1A3; human, 10 μM) | Compound | Specific Activity (nmol substrate sulfated/min/mg purified enzyme) (human SULT 1A2) | Specific Activity (nmol substrate sulfated/min/mg purified enzyme) (human SULT 1A3; [3]) | Specific Activity (nmol substrate sulfated/min/mg purified enzyme) (human SULT 1A1) | Specific Activity (pmol substrate sulfated/min/mg protein) ([1]; substrate 10 μM) | Specific Activity (pmol substrate sulfated/min/mg protein) ([1]; substrate 50 μM) | Specific Activity (pmol substrate sulfated/min/mg protein) ([2]; substrate 10 μM) | Specific Activity (pmol substrate sulfated/min/mg protein) ([2]; substrate 50 μM) | Specific Activity (nmol substrate sulfated/min/mg purified enzyme) (human SULT 1C4)
 | COc1ccc([C@@H]2CC(=O)c3c(O)cc(O)cc3O2)cc1O [Hesperetin] | 28.16 ± 0.38 nmol/min/mg | 29.80 ± 0.74 nmol/min/mg | 44.17 ± 1.16 nmol/min/mg | 458.26 ± 11.82 pmol/min/mg | 643.61 ± 45.12 pmol/min/mg | 139.79 ± 6.87 pmol/min/mg | 181.73 ± 13.25 pmol/min/mg | 13.34 ± 0.49 nmol/min/mg
 | O=c1cc(-c2ccc(O)cc2)oc2cc(O)cc(O)c12 [Apigenin] | 7.90 ± 0.32 nmol/min/mg | 6.38 ± 0.40 nmol/min/mg | 10.67 ± 0.99 nmol/min/mg | 88.59 ± 1.07 pmol/min/mg | 113.24 ± 0.32 pmol/min/mg | 20.87 ± 5.39 pmol/min/mg | 25.04 ± 2.20 pmol/min/mg | 3.58 ± 0.09 nmol/min/mg
14.90 ± 0.15 nmol/min/mg | O=C1C[C@@H](c2ccc(O)cc2)Oc2cc(O)cc(O)c21 [Naringenin] | 17.51 ± 0.31 nmol/min/mg |  | 24.85 ± 0.65 nmol/min/mg | 252.86 ± 13.22 pmol/min/mg | 354.21 ± 13.98 pmol/min/mg | 135.32 ± 15.67 pmol/min/mg | 156.97 ± 17.94 pmol/min/mg | 11.99 ± 0.17 nmol/min/mg
